{"source": "paper PMC7022378", "about": "“Structural Analyses on the Deamidation of N-Terminal Asn in the Human N-Degron Pathway” (Biomolecules, 2020)", "key": {"[1]": {"target": "T1, NTAN1 H92A (Homo sapiens, UniProt Q96AB6, H92A)", "T1 construct": "The gene for full-length NTAN1 was cloned into pET-21a(+); made in house; host or cells: E. coli Rosetta 2(DE3)", "T1 sequence (Q96AB6 1-310 H92A)": "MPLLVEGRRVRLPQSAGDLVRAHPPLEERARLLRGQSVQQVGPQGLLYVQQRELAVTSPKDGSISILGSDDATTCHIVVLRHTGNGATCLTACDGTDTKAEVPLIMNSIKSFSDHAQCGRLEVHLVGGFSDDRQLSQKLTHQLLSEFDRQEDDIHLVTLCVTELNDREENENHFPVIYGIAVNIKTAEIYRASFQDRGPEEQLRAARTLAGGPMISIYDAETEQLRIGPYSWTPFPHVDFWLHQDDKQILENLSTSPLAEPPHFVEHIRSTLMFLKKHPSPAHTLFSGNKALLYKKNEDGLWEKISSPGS", "assay": "In vitro deamidation assay, NTAN1 H92A mutant", "assay_type": "biochemical", "details": "substrate NRAAA, 100 μM, 37 °C, pH 7.0, LC-MS; vs wild-type (Figure 1f); three independent experiments", "source_text": "(§1) NTAN1 mutants were constructed using QuikChange Ⅱ Site-Directed Mutagenesis Kit (Agilent Technologies, Santa Clara, CA, USA). NTAN1 mutants, Q51A, S69A, T73A, T74A, C75A, H92A, S254A, T255A, and E260A were generated. The mutants were expressed and purified as for NTAN1.\n(§2) Peptides with Nt-Asn which mimic potential substrates of NTAN1 were synthesized: NRA, NRAA, NRAAA, NRQVA, NRQVAA, NRQVAAA, NFAAR, NLAAR, NRAAR, NAAAR, NNAAR, NPAAR, NGAAR, and NDAAR. Non-Nt-Asn peptides, QRAAA and VRAAA, were also synthesized. NTAN1 (at concentrations of 0.5 μM, 0.16 μM, or 0.04 μM) and the peptides (at a concentration of 100 μM) were mixed and incubated at 37 °C in a buffer containing 200 mM NaCl and 10 mM HEPES-NaOH (pH 7.0). […] The deamidation coefficient of peptides catalyzed by NTAN1 was assessed by the slope of exponential curve drawn from the concentration of the substrate over incubation time.\n(§3) The peptides were quantified by an LC-MS system (1260 Infinity/6430 Triple Quad, Agilent Technologies) equipped with a binary pump (G1312B), a thermostated column compartment (G1316C), a thermostat (G1330B), and an autosampler (G1367E). […] The data acquisition and processing were performed by using MassHunter Workstation Software Quantitative Analysis (Version B.05.00; Agilent Technologies, Santa Clara, CA, USA). […]"}, "[2]": {"target": "T2, NTAN1 E260A (Homo sapiens, UniProt Q96AB6, E260A)", "T2 construct": "The gene for full-length NTAN1 was cloned into pET-21a(+); made in house; host or cells: E. coli Rosetta 2(DE3)", "T2 sequence (Q96AB6 1-310 E260A)": "T1 sequence (Q96AB6 1-310 H92A) with A92H, E260A", "assay": "In vitro deamidation assay, NTAN1 E260A mutant", "assay_type": "biochemical", "details": "substrate NRAAA, 100 μM, 37 °C, pH 7.0, LC-MS (Figure 3d); three independent experiments", "source_text": "as §1, §2, §3"}, "[3]": {"system": "NTAN1 S254A", "assay": "In vitro deamidation assay, NTAN1 S254A mutant", "assay_type": "biochemical, human", "details": "substrate NRAAA, 100 μM, 37 °C, pH 7.0, LC-MS (Figure 3b); three independent experiments", "source_text": "as §1, §2, §3"}, "[4]": {"system": "NTAN1 S69A", "assay": "In vitro deamidation assay, NTAN1 S69A mutant", "assay_type": "biochemical, human", "details": "substrate NRAAA, 100 μM, 37 °C, pH 7.0, LC-MS (Figure 1d); three independent experiments", "source_text": "as §1, §2, §3"}, "[5]": {"target": "T3, NTAN1 C75A (Homo sapiens, UniProt Q96AB6, C75A)", "T3 construct": "The gene for full-length NTAN1 was cloned into pET-21a(+); made in house; host or cells: E. coli Rosetta 2(DE3)", "T3 sequence (Q96AB6 1-310 C75A)": "T1 sequence (Q96AB6 1-310 H92A) with C75A, A92H", "assay": "In vitro deamidation assay, NTAN1 C75A mutant", "assay_type": "biochemical", "details": "substrate NRAAA, 100 μM, 37 °C, pH 7.0, LC-MS; vs wild-type (Figure 1e); three independent experiments", "source_text": "as §1, §2, §3"}}, "note": "Changes are numbered by the printed parent chain.", "data": [{"substance": "NRAAA [synthesized peptide with Nt-Asn, 5 mer model substrate of NTAN1]", "values": [{"measurement": "Deamidation activity of NTAN1 H92A", "setting": "[1]", "value": "completely abolished"}, {"measurement": "Deamidation activity of NTAN1 E260A", "setting": "[2]", "value": "lost its deamidation activity"}, {"measurement": "Lower deamidation rate of NTAN1 S254A than wild-type NTAN1", "setting": "[3]", "value": "threefold"}, {"measurement": "Fold lower deamidation activity of NTAN1 S69A than wild-type NTAN1", "setting": "[4]", "value": "approximately 5 fold"}, {"measurement": "Deamidation activity of NTAN1 C75A", "setting": "[5]", "value": "completely abolished"}]}]}
